From patent US20040186098A1 (Amgen Inc., priority 1997, published 2004)

Legend:
FKBP12 = FKBP12 (Homo sapiens, UniProt P62942); assay: Ki test procedure: inhibition of peptidyl-prolyl isomerase (rotamase) activity of FKBP12, chymotrypsin-coupled assay; format: biochemical; settings: apparent Ki
Source text: The inhibition of the prolyl peptidyl cis-trans isomerase activity of FKBP may be measured as an indicator of this affinity.
The binding to FBKP12 and inhibition of the peptidyl-prolyl isomerase (rotamase) activity of the compounds used in the inventive methods and pharmaceutical compositions can be evaluated by known methods described in the literature (Harding et al., Nature, 1989, 341:758-760; Holt et al. J. Am. Chem. Soc., 115:9923-9938).
The cis-trans isomerization of an alanine-proline bond in a model substrate, N-succinyl-Ala-Ala-Pro-Phe-p-nitroanilide, is monitored spectrophotometrically in a chymotrypsin-coupled assay, which releases para-nitroanilide from the trans form of the substrate. The inhibition of this reaction caused by the addition of different concentrations of inhibitor is determined, and the data is analyzed as a change in first-order rate constant as a function of inhibitor concentration to yield the apparent Ki values.
In a plastic cuvette are added […] of ice cold assay buffer (25 mM HEPES, pH 7.8, 100 mM NaCl), 10 mL of FKBP (2.5 mM in 10 mM Tris-Cl pH 7.5, 100 mM NaCl, 1 mM dithiothreitol), […] of chymotrypsin (50 mg/ml in 1 mM HCl) and […] of test compound at various concentrations in dimethyl sulfoxide. The reaction is initiated by the addition of 5 mL of substrate (succinyl-Ala-Phe-Pro-Phe-para-nitroanilide, 5 mg/mL in 2.35 mM LiCl in trifluoroethanol).
The absorbance at 390 nm versus time is monitored for 90 seconds using a spectrophotometer and the rate constants are determined from the absorbance versus time data files.

Preyer's reflex = assay: Cisplatin-induced ototoxicity, compound given systemically, Preyer's reflex monitoring; format: in vivo, guinea pig; settings: 30 mg/kg s.c. daily, cisplatin 4 mg/kg i.p. x4; 10 days after the 4th injection; vehicle group more than 80%
Procedure: Twenty male pigmented guinea pigs were divided into two groups (10 in each). One group was treated with Compound XXV while the other with vehicle—2 days prior to the first cisplatin injection. The test compound or vehicle was delivered by daily sub-cutaneous injection. On the day of injection, 100 mg of Compound XXV was dissolved in 1 ml of ethanol, then added to 20% Intralipid solution to a final volume of 3 ml and final Compound XXV concentration of 10 mg/0.3 ml. Each animal was subcutaneously injected with 30 mg/kg of Compound XXV solution Two days after the beginning of test compound injections (d2), cisplatin intraperitoneal injection was given to all animals at 4 mg/kg. After 3 days, a second cisplatin injection was given to all animals (d5). After another 3 days, a third injection (d8) and after 3 more days the fourth and last injection of cisplatin was given (d11). Test compound injections continued daily until day 21 (10 days after the last cisplatin injection).
Preyers' reflex is a rough indication of hearing function in rodents. […] The animals in this experiment were monitored daily for their Preyer's reflex. […]
Determination of hair cell numbers was determined in the same manner as in Example 4.

outer hair cells (OHC) = assay: Intramiddle ear neomycin-induced ototoxicity, compound given into the middle ear, outer hair cell loss; format: in vivo, guinea pig; settings: 10 ng in the middle ear
Procedure: Twenty guinea pigs used in this study were divided into two groups: 10 animals received 10 ng and 10 received 1 ng of the sensorineurotrophic compound.
Sensorineurotrophic compound stock A: A stock solution of sensorineurotrophic compound at 1 mg/10 ml in 100% ethanol was prepared and then diluted and mixed in Intralipid at 10 ng/100 μl.
Sensorineurotrophic compound stock B: A stock solution of sensorineurotrophic compound at 1 mg/100 ml in 100% ethanol was prepared and then diluted and mixed in 20% Intralipid at 1 ng/100 μl.
Animals were anesthetized with an intramuscular injection of a mixture of ketamine (80 mg/kg) and xylazine (4 mg/kg). Through a post-auricular incision, the right bulla was identified. A hole was drilled to open the middle ear cavity (care was taken not to injure the tympanic annulus or ossicles). A piece of gelfoam (˜2 mm^3) soaked with the sensorineurotrophic compound solution was inserted into the round window niche. The remaining sensorineurotrophic compound solution (˜100 μl) then was injected into the middle ear cavity. In the 10 ng dose group, 100 μl of sensorineurotrophic compound stock A was administered; and in the 1 ng dose group, 100 μl of sensorineurotrophic compound stock B was administered to the middle ear cavity. The hole was covered with a piece of clear plastic sheet which was stuck on the skull with a superglue. The incision was closed with clips. The same procedure was performed at the left bulla, but 100 μl of vehicle solution instead of sensorineurotrophic compound solution was administered. The animals were maintained in the prone position until they woke up to ensure filling of the middle ear cavity.
After two days, the animals received a second middle ear administration of sensorineurotrophic compound or vehicle together with neomycin. Solutions were prepared for the two groups of animals as follows:
Solution A: Neomycin was dissolved in sensorineurotrophic compound stock A described above. The final concentration of neomycin was 5 mg and the sensorineurotrophic compound concentration was 10 ng in a 100 μl vehicle solution.
Solution B: Neomycin was dissolved in sensorineurotrophic compound stock B described above. The final concentration of neomycin was 5 mg and the concentration of sensorineurotrophic compound was 1 ng in a 100 μl vehicle solution.
Solution C: Neomycin was dissolved in 20% Intralipid to a final concentration of 5 mg in 100 μl vehicle.
The plastic cover sheet on the bulla window was removed and the middle ear cavity was exposed. The old sensorineurotrophic compound or vehicle was sucked off and the old gelfoam was removed from the round window niche. A piece of gelfoam with fresh stock solution containing sensorineurotrophic compound and neomycin was administered to the round window niche, and the remaining solution (˜100 μl, solution A for the 10 ng dose group and solution B for the 1 ng dose group, respectively) was injected into the middle ear cavity of the right bulla.
Solution C (100 μl) was administered to the left ear for both groups in the same way.
Fourteen days after the second surgery, animals were perfused transcardially with a PBS flush followed by a fixative of 4% paraformaldehyde in 0.1M PBS. Immediately following the perfusion, the temporal bone was removed from the head. The bulla was opened and the cochlea was exposed. The apex was opened and the membrane of the round and oval windows was punched. The fixative solution was gently infused into the perilymphatic space through the apex hole and then allowed to flow out from windows. Then the cochleae were post-fixed in the same fixative solution for at least one day.
To identify and count hair cells in the organ of Corti, a direct immunostaining method was used to label the actin present naturally in the stereocilia bundles of the hair cells. The cochlea was dissected and the perilymphatic space was fully exposed. […]

[1] = rotamase inhibition, Table XLI, Formulas I to XIV

Sequence of FKBP12 (P62942 whole entry, species assumed): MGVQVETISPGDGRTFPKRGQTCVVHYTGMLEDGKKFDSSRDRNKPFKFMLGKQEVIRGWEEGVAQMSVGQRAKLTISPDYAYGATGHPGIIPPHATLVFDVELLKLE

SMILES | Ki (FKBP12; FKBP12 rotamase inhibition) [nM] | Ki (FKBP12; [1]) [nM] | also measured
O=C(SC(CCc1ccccc1)CCc1ccccc1)C1CCCCN1C(=O)Nc1ccccc1 (stereo not shown) [Compound 113] | 1 to 50 |  | 
O=C(C(=O)N1CCC[C@H]1C(=O)SCCc1ccccc1)C1CCCC1 [Compound 28, 2-Phenyl-1-ethyl (2S)-1-(1-cyclopentyl-1,2-dioxoethyl)-2-pyrrolidinecarbothioate] |  | 108 | 
CCC(C)(C)C(=O)C(=O)N1CCCCC1C(=O)SCCC(c1ccccc1)c1ccccc1 (stereo not shown) [Compound XXV] |  |  | animals that lost Preyer's reflex (Preyer's reflex): about 20 % of the animals
CCC(C)(C)C(=O)C(=O)N1CCC[C@H]1C(=O)SCCC(c1ccccc1)c1ccccc1 [Compound XVI] |  |  | difference in the number of OHCs lost, vehicle vs compound (FIG. 8) (outer hair cells (OHC); 5 mg neomycin, group mean): over 50%; loss of hair cells in the second turn (turn 3), in words (outer hair cells (OHC); neomycin (FIG. 9)): completely prevent the loss; loss of hair cells in the basal turn (turn 4) (outer hair cells (OHC); neomycin, vehicle almost 100% (FIG. 9)): around 30%
CCC(C)(C)C(=O)C(=O)N1CSC[C@@H]1C(=O)OCCCc1ccccc1 [Compound 80, 3-phenyl-1-propyl(2S)-1-(3,3-dimethyl-1,2-dioxopentyl)-2-(4-thiazolidine)carboxylate] |  | 215 | 
O=C(SCCCc1cccnc1)C1CCCN1C(=S)NC12CC3CC(CC(C3)C1)C2 (stereo not shown) [Compound 108] | 1 to 50 |  | 
CCC(C)(C)NC(=O)N1CCCC1C(=O)SCCCc1ccc(OC)cc1 (stereo not shown) [Compound 103] | 51 to 200 |  | 
O=C(C(=O)N1CCCCC1C(=O)SCCc1ccccc1)c1ccccc1 (stereo not shown) [Compound 14] |  | 313 | 
